# Results as given in EP3878441B1, “ALOE EMODIN AND ESTER DERIVATIVES THEREOF FOR TREATING SSTR2 AND/OR SSTR5 OVEREXPRESSING CANCERS” (Pecere, Teresa, priority 2020, dated 2021).
# Assays:
# sstr2 gene [1] = assay: Real-time PCR, sstr2 mRNA gene expression in IMR5 cells; format: cell-based, human; conditions: SST14 10µM, 5,30,60,120 min (fig.1B)
# Protocol: (§1) Real-time PCR analyses were carried out to quantify expression of the selected sstrs genes in IMR5, DMS114, and MRC5 cells. Total RNA was isolated using the Qiagen RNeasy Mini Kit in accordance with the manufacturer's instructions. cDNA synthesis were performed using GeneAmp® RNA PCR Core Kit (Roche, New Jersey, U.S.A.). The expression levels of sstrs mRNA were evaluated by qualitative RT-PCR using the specific primers.
# (§2) Relative quantitative PCR (qPCR) was carried out in 25 µl final volume utilizing 3 µl of cDNA, 0.2 µM of each specific primers, using SYBRgreen reagents according to the manufacturer's instructions. PCR reactions comprised 40 cycles after an initial denaturation step (95°C, 10 min) according to the parameters: denaturation at 95°C, 15 sec and annealing/extension at 60°C, 1 min, in an ABI PRISM 7700 Sequence Detection system. To normalize the RNA amount of the extracted samples, real-time PCR analysis of the human GAPDH cDNA was carried out. Moreover, we optimized the method for relative quantification with sequence-specific DNA probes for sstr2 and sstr5 genes TaqMan reagents using kit TaqMan Gene Expression Assays according to the manufacturer's instructions (Applied Biosystem, Milan, Italy). The relative quantification of a target template in the samples was evaluated using the 2^-ΔΔCT method. All experiments were conducted in triplicate.
# [2] = state of the art statement; cited from earlier work
# Sstr5 gene = assay: Real-time PCR, sstr5 mRNA gene expression in IMR5 cells; format: cell-based, human; conditions: AE 50µM, SST14 10µM, 5,30,60,120 min (fig.1B)
# Protocol: as §1, §2
# sstr2 gene [3] = assay: Real-time PCR, sstr2 mRNA gene expression in MRC5 cells; format: cell-based, human; conditions: AE 50µM, SST14 10µM, 5,30,60,120 min (fig.1B)
# Protocol: as §1, §2
substance,measurement,setting,value
SST14: somatostatin peptide containing 14 amino acids; natural ligand of somatostatin receptors,sstr2 gene expression,sstr2 gene [1],up-regulated
same,plasma half-life,[2],< 3 min
same,Sstr5 gene expression,Sstr5 gene,up-regulated
same,sstr2 gene expression,sstr2 gene [3],significantly upregulated
